Reference: ChEMBL document CHEMBL1201862, “PubChem BioAssay data set” (2004)
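In this assay, cells in 96-well plates receive the compound at five concentrations for 48 hours. Endpoints are linearly interpolated between the surrounding concentrations. GI50 = concentration required for 50% inhibition of growth.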 Active and inactive are the calls of the source. Cut-off read from the data, not from the text of the source: active = GI50 up to about 1.1 µM and inactive = higher.

Legend:
Assay in all cases: inhibition of tumour cell growth, NCI panel, 48 h
[1] = system: SF-268
[2] = system: PC-3
[3] = system: SW-620
[4] = system: UACC-257
[5] = system: SK-MEL-2
[6] = system: OVCAR-8
[7] = system: HCT-116
[8] = system: MDA-N
[9] = system: MOLT-4
[10] = system: HL-60
[11] = system: UO-31
[12] = system: TK-10
[13] = system: NCI-H460
[14] = system: NCI-H522
[15] = system: M14
[16] = system: SF-539
[17] = system: SF-295
[18] = system: CCRF-CEM
[19] = system: Hs-578T
[20] = system: DU-145
[21] = system: NCI/ADR-RES
[22] = system: SK-MEL-5
[23] = system: OVCAR-4
[24] = system: OVCAR-5
[25] = system: SN12C
[26] = system: SK-MEL-28
[27] = system: OVCAR-3
[28] = system: HOP-92
[29] = system: KM12
[30] = system: EKVX
[31] = system: K562
[32] = system: IGROV-1
[33] = system: CAKI-1
[34] = system: MDA-MB-231
[35] = system: HCT-15
[36] = system: A549
[37] = system: SNB-19
[38] = system: COLO 205
[39] = system: UACC-62
[40] = system: SK-OV-3
[41] = system: MCF7
[42] = system: NCI-H226
[43] = system: SR
[44] = system: 786-0
[45] = system: HCC 2998
[46] = system: MDA-MB-435
[47] = system: T47D
[48] = system: HT-29
[49] = system: ACHN
[50] = system: SNB-75
[51] = system: Malme-3M
[52] = system: RXF 393
[53] = system: U-251
[54] = system: NCI-H23
[55] = system: LOX IMVI
[56] = system: RPMI-8226
[57] = system: HOP-62
[58] = system: A498

Measured: GI50

CSC(=S)Nc1cc(C)ccn1
> 100 µM: [35]
inactive: [1] 70 µM | [2] > 100 µM | [3] > 100 µM | [4] > 100 µM | [5] 93.5 µM | [6] > 100 µM | [7] 70.5 µM | [8] > 100 µM | [9] > 100 µM | [10] > 100 µM | [11] > 100 µM | [12] > 100 µM | [13] 85.9 µM | [14] 40.7 µM | [15] > 100 µM | [16] > 100 µM | [17] 76.7 µM | [18] > 100 µM | [19] > 100 µM | [20] > 100 µM | [21] 60.5 µM | [22] 16.7 µM | [23] 39.1 µM | [24] > 100 µM | [25] 57.7 µM | [26] > 100 µM | [27] 40.6 µM | [28] 79.3 µM | [29] > 100 µM | [30] > 100 µM | [31] 62.5 µM | [32] 20.8 µM | [33] > 100 µM | [34] 33.1 µM | [36] > 100 µM | [37] > 100 µM | [38] 50.8 µM | [39] > 100 µM | [40] > 100 µM | [41] > 100 µM | [42] > 100 µM | [43] 78.2 µM | [44] 75.2 µM | [45] > 100 µM | [46] > 100 µM | [47] 58.9 µM | [48] > 100 µM | [49] 70 µM | [50] 29 µM | [51] 61.4 µM | [52] > 100 µM | [53] 67.8 µM | [54] > 100 µM | [55] > 100 µM | [56] 97.7 µM | [57] > 100 µM

O=C1c2ccccc2CC12Cc1cc3c(cc1C2)CCC3
inactive: [1] > 100 µM | [2] 39.8 µM | [3] 78.2 µM | [4] 31.9 µM | [5] 31.2 µM | [6] > 100 µM | [7] 30.6 µM | [8] 37.5 µM | [9] 22.6 µM | [10] 24 µM | [11] 69.3 µM | [12] > 100 µM | [13] 39.9 µM | [14] 30.5 µM | [15] 19.5 µM | [16] > 100 µM | [17] > 100 µM | [18] 55.3 µM | [19] > 100 µM | [20] > 100 µM | [21] 44 µM | [22] 20.5 µM | [23] > 100 µM | [24] > 100 µM | [25] 59.7 µM | [26] 45.8 µM | [27] 31.6 µM | [28] 37.6 µM | [29] 53.5 µM | [30] 99.3 µM | [31] 86.7 µM | [32] 87.3 µM | [33] > 100 µM | [34] > 100 µM | [36] > 100 µM | [37] > 100 µM | [38] 31.3 µM | [40] > 100 µM | [41] 34.5 µM | [42] 15.9 µM | [43] 16.7 µM | [44] 94.4 µM | [45] 57.5 µM | [46] 34 µM | [47] > 100 µM | [48] 21.9 µM | [49] 43.3 µM | [50] 33.3 µM | [51] 22.7 µM | [52] 40.6 µM | [53] 43.1 µM | [54] > 100 µM | [55] 57.1 µM | [58] 84.1 µM | [56] 32 µM | [57] > 100 µM
43.2 µM: [35]
